Reference: ChEMBL document CHEMBL1146718, “Discovery of a potent, selective and orally active canine COX-2 inhibitor, 2-(3-difluoromethyl-5-phenyl-pyrazol-1-yl)-5-methanesulfonyl-pyridine” (Bioorg Med Chem Lett, 2004)

Key:
in vivo [1] = settings: dog, plasma, po, 5 mg/kg
in vivo [2] = settings: dog, po, 5 mg/kg
in vivo [3] = settings: dog, po, 5 mg/kg; remark: listed apart in the source
in vivo [4] = settings: dog, plasma, po, 5 mg/kg; remark: listed apart in the source
in vivo [5] = settings: dog, po, 5 mg/kg; remark: listed apart in the source

Cmax (in vivo [1]) [ng/mL] | half-life (in vivo [2]) [h] | concentration at 24 h (in vivo [3]) [ng/mL] | AUC (in vivo [4]) [ng·h/mL] | Tmax (in vivo [5]) [h] | SMILES
1090 | 26 |  |  | 1.5 | CS(=O)(=O)c1ccc(-n2nc(C(F)F)cc2-c2ccccc2)nc1
611 | 13.1 | 77 | 4280 | 0.8 | CS(=O)(=O)c1ccc(-n2nc(C(F)(F)F)cc2-c2ccccc2)nc1
540 | 17.5 | 134 | 4820 | 0.8 | CS(=O)(=O)c1ccc(-n2nc(C(F)(F)F)cc2-c2ccc(F)cc2)nc1
540 | 3.3 |  | 3100 |  | Cc1ccc(-c2cc(C(F)(F)F)nn2-c2ccc(S(N)(=O)=O)cc2)cc1 [CELECOXIB]

SMILES | Cmax (in vivo [1]) [ng/mL] | half-life (in vivo [2]) [h] | concentration at 24 h (in vivo [3]) [ng/mL] | AUC (in vivo [4]) [ng·h/mL] | Tmax (in vivo [5]) [h]
CS(=O)(=O)c1ccc(-n2nc(C(F)F)cc2-c2ccc(F)cc2)nc1 | 509 | 17 | 329 | 7650 | 1.3
